Columns and labels:
[1] = target: human estrogen receptor β (Homo sapiens, UniProt Q92731); experiment: Inhibition of [3H]estradiol binding to estrogen receptor β; settings: One millimolar test sample, 0.5 nM tritium-labeled estradiol, 25° C., 2 hours, pH 7.4
Procedure: (§1) One millimolar of a test sample (pinoresinol diglycoside, pinoresinol and secoisolariciresinol) and 0.5 nM of tritium-labeled estradiol were reacted in 10 mM of tris buffer at pH 7.4 (with 0.1% BSA, 10% Glycerol, 1 mM DTT) containing a human estrogen receptor α or β at 25° C. for 2 hours. After completion of the reaction, the receptor was collected and washed to measure the amount of the tritium-labeled estradiol bound to the receptor according to a conventional method. The binding level of [^3H] Estradiol in the presence of a lignan or a metabolic intermediate was calculated with the binding of 0.5 nM of [^3H] Estradiol to the receptor as 100%, which was subtracted from 100 to define a binding inhibition rate.

[2] = target: T1, human estrogen receptor α (Homo sapiens, UniProt P03372); experiment: Inhibition of [3H]estradiol binding to estrogen receptor α; settings: for binding inhibition rate to estrogen receptor α, inhibition rate (%): One millimolar test sample, 0.5 nM tritium-labeled estradiol, 25° C., 2 hours, pH 7.4
T1 sequence (P03372 1-595): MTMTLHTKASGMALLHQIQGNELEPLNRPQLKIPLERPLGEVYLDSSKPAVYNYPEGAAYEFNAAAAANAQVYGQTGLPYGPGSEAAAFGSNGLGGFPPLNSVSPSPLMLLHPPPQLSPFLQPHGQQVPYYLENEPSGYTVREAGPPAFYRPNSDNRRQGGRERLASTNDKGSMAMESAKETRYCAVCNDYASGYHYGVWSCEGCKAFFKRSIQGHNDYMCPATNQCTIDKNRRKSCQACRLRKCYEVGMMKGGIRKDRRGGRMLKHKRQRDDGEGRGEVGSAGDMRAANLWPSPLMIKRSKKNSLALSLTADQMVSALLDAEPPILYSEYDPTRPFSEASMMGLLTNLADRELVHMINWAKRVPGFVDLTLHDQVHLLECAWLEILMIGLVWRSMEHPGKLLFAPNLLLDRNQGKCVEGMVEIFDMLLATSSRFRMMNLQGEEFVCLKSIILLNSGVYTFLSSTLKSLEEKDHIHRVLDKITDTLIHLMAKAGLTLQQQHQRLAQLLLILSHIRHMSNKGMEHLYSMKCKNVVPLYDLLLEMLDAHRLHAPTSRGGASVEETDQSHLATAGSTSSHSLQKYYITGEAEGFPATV
Procedure: as §1

[3] = Lignan-metabolizing ability of microorganisms: conversion of pinoresinol to secoisolariciresinol (HPLC); set-up: key to pinoresinol to secoisolariciresinol: o indicates that the lignan was converted in 50% or more; x indicates that most of the lignan was not converted; settings: for pinoresinol to secoisolariciresinol: lignan 0.5 mM in MRS or GAM medium, culture at 37° C., HPLC
Procedure: Lignan-metabolizing abilities of various types of microorganisms were evaluated. The various microorganisms shown in the following Tables 1 to 3 were pre-cultured in MRS medium or GAM medium at 37° C. for 20 to 24 hours, and inoculated at 1 to 3% to 10 ml of MRS medium or GAM medium Du zhong lignan (pinoresinol and medioresinol) was added at a final concentration of 0.5 mM in the medium, and continued to culture at 37° C. Samples were taken at regular intervals and assayed by HPLC to monitor the conversion of lignan to secoisolariciresinol.

human estrogen receptor β, sequence (Q92731 whole entry): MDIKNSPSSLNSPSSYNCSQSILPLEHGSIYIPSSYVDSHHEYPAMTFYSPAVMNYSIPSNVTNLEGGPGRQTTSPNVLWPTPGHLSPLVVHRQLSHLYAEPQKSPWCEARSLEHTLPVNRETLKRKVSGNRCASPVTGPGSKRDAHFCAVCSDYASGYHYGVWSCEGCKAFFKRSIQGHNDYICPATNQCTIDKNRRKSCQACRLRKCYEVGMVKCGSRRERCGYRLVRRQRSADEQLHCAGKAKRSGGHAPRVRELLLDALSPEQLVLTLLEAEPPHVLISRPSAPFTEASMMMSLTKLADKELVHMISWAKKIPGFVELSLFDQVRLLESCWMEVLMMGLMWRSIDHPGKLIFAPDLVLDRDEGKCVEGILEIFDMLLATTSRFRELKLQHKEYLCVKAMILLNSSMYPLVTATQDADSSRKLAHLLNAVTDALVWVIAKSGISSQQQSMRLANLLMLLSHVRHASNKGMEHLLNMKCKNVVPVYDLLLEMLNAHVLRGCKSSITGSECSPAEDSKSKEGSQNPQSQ

| Compound | binding inhibition rate to estrogen receptor β, inhibition rate (%) [1] | binding inhibition rate to estrogen receptor α, inhibition rate (%) [2] | pinoresinol to secoisolariciresinol [3] | further results |
| --- | --- | --- | --- | --- |
| COc1cc([C@H]2OC[C@H]3[C@@H]2CO[C@@H]3c2ccc(O[C@@H]3O[C@H](CO)[C@@H](O)[C@H](O)[C@H]3O)c(OC)c2)ccc1O[C@@H]1O[C@H](CO)[C@@H](O)[C@H](O)[C@H]1O [pinoresinol diglycoside] | 5% | 4% |  |  |
| Bifidobacterium |  |  | x |  |
| Lactobacillus reuteri |  |  | x |  |
| COc1cc(C[C@@H](CO)[C@H](CO)Cc2ccc(O)c(OC)c2)ccc1O [secoisolariciresinol] | 52% | 43% |  | binding inhibition rate to an estrogen receptor relative to pinoresinol diglycoside ([2]; estrogen receptor subtype not specified, versus pinoresinol diglycoside): ten times higher |
| Lactobacillus acidophilus |  |  | ∘ | ability to produce secoisolariciresinol from pinoresinol (in words) ([3]; summary of Tables 1 to 3): capable of producing secoisolariciresinol from pinoresinol |
| Lactobacillus plantarum |  |  | x |  |
| pinoresinol | 30% | 23% |  |  |

Reference: patent US20090104167A1, “Prophylactic/Ameliorating Agent for Menopausal Disorder and Functional Beverage/Food” (Calpis Co., Ltd., priority 2005, published 2009)
